In patent US20120132797A1, “MEANS AND METHODS FOR DIAGNOSING THYROID DISORDERS” (BASF SE, priority 2009, published 2012):

System: Wistar (Crl:WI(Han)) rats
Assay: Mass spectrometry-based plasma metabolite profiling of rats treated with known inducers of thyroid function impairment
Type: in vivo, rat
Details: male rats, ratio of group medians vs controls, Table 4
Excerpt: At the beginning of the study the animals were 10-11 weeks old. Each dose group in the studies consisted of five rats per sex, and was compared with controls (10 rats per sex). […] The dose levels were chosen to show the typical overt (high dose) and slight (low dose) toxicological symptoms of the substances as described in the literature or in BASF internal study reports.
Blood samples were withdrawn from the retro-orbital sinus in all rats under isoflurane anesthesia on study days 7, 14 and 28 after a fasting period of 16-20 hours.
For mass spectrometry-based metabolite profiling analysis, plasma samples were extracted by a proprietary method which delivers a polar and a non-polar fraction. For GC-MS analysis, the non-polar fraction was treated with methanol under acidic conditions to yield the fatty acid methyl esters. Both fractions were further derivatised with Omethyl-hydroxyamine hydrochloride and pyridine to convert oxo groups to Omethyloximes and subsequently with a silylating agent before analysis.
In LC-MS/MS analysis, both fractions were reconstituted in appropriate solvent mixtures. HPLC was performed by gradient elution on reversed phase separation columns. For mass spectrometric detection metanomics proprietary technology was applied, which allows target and high sensitivity MRM (Multiple Reaction Monitoring) profiling in parallel to a full screen analysis. […] Moreover, several hundred additional analytes giving a fingerprint of the sample were included in the methods.
Following comprehensive analytical validation steps, the data for each analyte were normalized against data from pool samples. These samples were run in parallel through the whole process to account for process variability.
The sex- and day-stratified heteroscedastic t-test (“Welch test”) was applied to compare treated groups with respective controls. p-Values and ratios of corresponding group medians were collected as metabolic profiles and fed into a database.

## Cc1cccc(C)c1N(Cn1cccn1)C(=O)CCl [Metazachlor]
mh7 (study day 7)
  Behenic acid (C22:0): 1.92
  Cholesterol: 1.71
  Citrate: 0.99
  Cytosine: 0.64
  Galactose, lipid fraction: 1.81
  Glycerol phosphate: 1.63
  Glycine: 1.12
  Lignoceric acid (C24:0): 1.60
  Mannose: 1.22
  Nervonic acid C24:(cis[15]1): 3.17
  Phospha-tidylcholine (C18:0, 18:2): 1.40
  Sphingomyelin (d18:1, C16:0): 2.54
  Stearic acid (C18:0): 1.45
  Threonic acid: 1.16
  dihomo-gamma-Linolenic acis (C20:cis[8,11,14]3): 2.41
  erythro-Sphingosine: 2.31
  myo-Inositol-2-phosphate: 2.17
  threo-Sphingosine: 2.05
mh14 (study day 14)
  Behenic acid (C22:0): 2.47
  Cholesterol: 2.15
  Citrate: 0.94
  Cytosine: 0.75
  Galactose, lipid fraction: 2.27
  Glycerol phosphate: 2.20
  Glycine: 1.10
  Lignoceric acid (C24:0): 2.38
  Mannose: 1.37
  Nervonic acid C24:(cis[15]1): 4.00
  Phospha-tidylcholine (C18:0, 18:2): 1.55
  Sphingomyelin (d18:1, C16:0): 2.36
  Stearic acid (C18:0): 2.36
  Threonic acid: 1.25
  dihomo-gamma-Linolenic acis (C20:cis[8,11,14]3): 5.18
  erythro-Sphingosine: 3.47
  myo-Inositol-2-phosphate: 4.01
  threo-Sphingosine: 3.22
mh28 (study day 28)
  Behenic acid (C22:0): 2.05
  Cholesterol: 2.43
  Citrate: 1.08
  Cytosine: 0.66
  Galactose, lipid fraction: 2.57
  Glycerol phosphate: 2.36
  Glycine: 1.26
  Lignoceric acid (C24:0): 2.11
  Mannose: 1.46
  Nervonic acid C24:(cis[15]1): 3.63
  Phospha-tidylcholine (C18:0, 18:2): 1.51
  Sphingomyelin (d18:1, C16:0): 2.32
  Stearic acid (C18:0): 2.59
  Threonic acid: 1.36
  dihomo-gamma-Linolenic acis (C20:cis[8,11,14]3): 3.36
  erythro-Sphingosine: 3.68
  myo-Inositol-2-phosphate: 2.79
  threo-Sphingosine: 3.54
